Earlier results as cited in US20100291221A1, “Method of administering dose-sparing amounts of formoterol fumarate-budesonide combination particles by inhalation” (priority 2009, published 2010).

Assays:
[1] = 9 ug Formoterol Fumarate alone (2 puffs); first treatment day
adult asthmatics = details: inhaled

In the case of `COc1ccc(C[C@@H](C)NC[C@H](O)c2ccc(O)c(NC=O)c2)cc1.COc1ccc(C[C@@H](C)NC[C@H](O)c2ccc(O)c(NC=O)c2)cc1.O=C(O)/C=C/C(=O)O` [Formoterol Fumarate, formoterol fumarate], the “Change in FEV1 at 15 minutes” value [1] is listed as 11%, the “Change in FEV1 at 120 minutes” value [1] is listed as 18% and the Minimum efficacy dose (adult asthmatics; adult asthmatics) is listed as “approximately 4 micrograms”. For the same compound, the “Level at which systemic b2 agonist effects begin to occur” value (adult asthmatics) was “above 12 micrograms”.
